Results on five compounds are retold here after patent publication US12637430B2, “Interleukin-17 (IL-17) inhibitors” (priority 2020, dated 2026).

pIC50: −log10 of the molar value.

One data set deals with T1, human IL-17A (Homo sapiens, UniProt Q16552).
T1 construct: purchased Sino Biological Inc. 12047-H07B
T1 sequence (Q16552 24-155): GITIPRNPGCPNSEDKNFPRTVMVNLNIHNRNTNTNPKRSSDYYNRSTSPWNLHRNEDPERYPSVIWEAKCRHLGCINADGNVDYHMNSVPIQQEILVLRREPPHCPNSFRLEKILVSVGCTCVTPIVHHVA
The experiment in a line: IL-17A enzyme-linked immunosorbent assay (competitive ELISA, IL-17A/IL-17R binding). The method, then: The inhibition of receptor-ligand binding by human IL-17A inhibitors was quantified by competitive ELISA. 0.2 μg/mL of IL-17A (Sino Biological Inc. Cat #12047-H07B) was added in a 96-well plate at 100 μl per well for incubation for 30 min under 37° C. The 96-well plate was washed with PBST (PBS, 0.05% Tween-20) at 200 μl per well for 4 times, and then added with 200 μl of 5% skim milk and placed on a shaker for incubation at 25° C. for 30 min. The compound to be tested was prepared at 100× concentration ranging from 0.003 μM to 30 μM. After washed with PBST (PBS, 0.05% Tween-20) 4 times, the plate was added with 89 μl of PBST and 1 μl of the compound to be tested at 100× concentration followed by uniformly mixing and pre-incubation at 25° C. for 10 min. Then the plate was added with 10 μl of 16 nM IL-17R, and incubated on a shaker at 25° C. for 30 min. After washed for 4 times, the plate was added with 100 μl of anti-Fc-tag horseradish peroxidase (HRP)-conjugated antibody, and incubated on a shaker at 25° C. for 30 min. After washed 4 times, the plate was added with 100 μl of 3,3′, 5,5″-tetramethylbenzidine (TMB) substrate solution, and incubated at 25° C. in the dark. Then the plate was added with 20% HCl, followed by detection of the light absorption value at a wavelength of 450 nm by a microplate reader. The compounds prepared in the above examples were tested for human IL-17A inhibitory activity according to the above method.
In general terms: In an ELISA, binding on a coated surface is turned into a signal by an enzyme label.

The target in another data set is T2, human IL-17A protein (Homo sapiens, UniProt Q16552).
T2 construct: purchased R&D 317-ILB
T2 sequence (Q16552 20-155 limits assumed): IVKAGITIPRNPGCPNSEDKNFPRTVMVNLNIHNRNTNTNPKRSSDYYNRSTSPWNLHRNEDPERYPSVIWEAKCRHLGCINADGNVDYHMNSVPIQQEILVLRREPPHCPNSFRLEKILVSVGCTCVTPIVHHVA
The experiment in a line: Inhibition of chemokine GROα/CXCL1 generation induced by human IL-17A protein in HT-29 cell. It counts as cell-based. As for the experimental part:
HT-29 (Zhongyuan Gongchuang Technology Co., Ltd. of Chengdu, Sichuan) was added to a 96-well plate at 5×10^4 cells/well, and cultured overnight in a incubator at 37° C. A mixture of 30 ng/mL of human IL-17A protein (R&D, #317-ILB) and IL-17A small molecule inhibitors with gradient concentrations or 0.3 μg/mL of positive control IL-17A antibody (R&D, #AF-317-NA) was incubated at 37° C. for 1 h, and then added to the above-mentioned 96-well plate, and incubated with HT-29 cells at 37° C. for 48 hours. Then the GROα level in the cell culture supernatant was detected by an ELISA kit (Cisbio, #62HCXC1PEG) of the GROα.
According to the methods described in Experimental Examples 1 and 2, the compounds prepared in the above-mentioned examples were subjected to the experiment on inhibition of chemokine GROα/CXCL1 generation induced by human IL-17A protein in HT-29 cell.

The test system of data set [1] is cytochrome P450 1A2 (CYP1A2). It counts as in vitro ADME. As to conditions: human hepatocytes, concentration 25/750 μM (positive control). The method, then:
In order to evaluate the induction of CYP enzymes in human hepatocytes by the compounds prepared in the above examples at 10 μM, Omeprazole (positive control) and the compound prepared in Example 32 (control compound 2) disclosed in patent application. WO2020/127685A1 were used as controls.

One may read the pIC50 as −log10 of the IC50, conventionally taken in molar units. Read a high pIC50 as a small IC50. Regarding `Cc1n[nH]c(C)c1-c1ncc(NC(=O)[C@@H](NC(=O)c2ccnn2C(C)C)C(C2CC2)C2(C)CC2)cc1F` (stereo partly drawn) [Compound 58], the pIC50 was 7.38 on human IL-17A and 6.66 on human IL-17A protein.

`Cc1nonc1C(=O)N[C@H](C(=O)Nc1cnc(-c2c(C)n[nH]c2C)c(F)c1)C(C1CC1)C1(C)CC1` (stereo partly drawn) [Compound 59]: the figures for the pIC50 on human IL-17A and against human IL-17A protein were 7.06 and 5.33, respectively.

Take `Cn1nccc1C(=O)N[C@H](C(=O)Nc1ccc(N2CCOCC2)nc1)[C@H](c1ccccc1Cl)C1(C)CC1` [Compound 60]: the pIC50 on human IL-17A is 6.49; at human IL-17A protein, 5.10.

On to `Cn1nccc1C(=O)N[C@H](C(=O)Nc1ccc(C2CCOCC2)cc1)[C@H](c1ccccc1Cl)C1(C)CC1` [Compound 62], for which the pIC50 is 7.25 at human IL-17A and 6.43 on human IL-17A protein.

On to `COc1ccc2[nH]c([S+]([O-])Cc3ncc(C)c(OC)c3C)nc2c1` (stereo not drawn) [Omeprazole, reference compound], for which the “mRNA Expression level Fold of induction 1A2” value in data set [1] was 12.8.
